PMC8373237 (Antimicrobial Agents and Chemotherapy, 2021)
Converted amounts (≈) assume the structure as drawn. Read-outs that look alike come from different tables or passages of the source. Marks after values point to notes of the source that are not given here. Square brackets hold non-standard residues; d marks the D form. Peptide text beside a SMILES is read from it. Nphe = O=C(O)CNCc1ccccc1; NPrGly = CCCNCC(=O)O; Sar = CNCC(=O)O

Legend:
[1] = test system: P. aeruginosa PA103 T3SS (ExoU secretion); type: cell-based, Pseudomonas aeruginosa
[2] = Kinetic solubility; type: physicochemical
Protocol: […] Then, […] of 15 mM stock compound was added to make a solution of 120 μM final concentration with 0.8% DMSO. The solution was shaken at 37°C for ∼2 h. The solution was passed over a 0.7- μM glass fiber filter. Then, the solution was diluted 1:4 in acetonitrile to crash out any proteins. The solution was centrifuged at 500 × g for 10 min. Avoiding the pellet, 10 μl of supernatant was added to a fresh plate with 90 μl of acetonitrile. The final dilution is 40 times lower. Next, 10 μl of 40× dilution of solution was injected on the Orbi-trap. A 1 μM standard was used for the ratiometric comparison, and the assay was done in triplicate.

[3] = test system: Pseudomonas aeruginosa Psc T3SS; details: culture-based secretion assay, cited from earlier work
[4] = test system: Yersinia pseudotuberculosis Ysc T3SS; details: cited from earlier work; for IC50: culture-based secretion assay
[5] = test system: Hrc1 T3SS, Pseudomonas syringae; details: biochemical assay, cited from earlier work; for lowest known inhibitory concentration (∼), hrpA: ref [108]
[6] = test system: Chlamydiales T3SS, Chlamydia; details: cell-based infection assay, cited from earlier work
[7] = test system: Salmonella enterica Typhimurium SPI-1 T3SS; details: cited from earlier work
[8] = test system: Y. pseudotuberculosis twin arginine translocation (Tat) system; type: cell-based, Yersinia pseudotuberculosis; details: culture optical density, 4 and 6 h
[9] = test system: Pseudomonas aeruginosa Psc T3SS; details: cited from earlier work
[10] = read-out: IC50, inhibition of secretion of T3SS effector ExoU

For `CCCN1CC(=O)N(Cc2ccccc2)CC(=O)N[C@H](C)C(=O)N[C@@H]([C@@H](C)CC)C(=O)N[C@@H](CC(C)C)C(=O)N[C@H](Cc2ccccc2)C1=O` [1EpDN 3Ala, EpD1,2N 3Ala] (cyclo(IL[dF][NPrGly][Nphe][dA])), the IC50 ([1]; read-out: IC50 (Table S1)) was > 1000 µM and the solubility [2] was 180 µM (≈ 124 µg/mL).

In the case of `CCCN1CC(=O)N(Cc2ccccc2)CC(=O)N[C@H](CC(C)C)C(=O)N[C@@H](C)C(=O)N[C@@H](CC(C)C)C(=O)N[C@H](Cc2ccccc2)C1=O` [1EpDN 4Ala, EpD1,2N 4Ala] (cyclo(AL[dF][NPrGly][Nphe][dL])), the IC50 ([1]; read-out: IC50 (Table S1)) is reported as > 1000 µM and the solubility kinetic [2] is reported as 75 µM (≈ 51.8 µg/mL).

In the case of `CCCN1CC(=O)N(Cc2ccccc2)CC(=O)N[C@H](CC(C)C)C(=O)N[C@@H]([C@@H](C)CC)C(=O)N[C@@H](C)C(=O)N[C@H](Cc2ccccc2)C1=O` [1EpDN 5Ala, EpD1,2N 5Ala] (cyclo(A[dF][NPrGly][Nphe][dL]I)), the IC50 ([1]; read-out: IC50 (Table S1)) is reported as > 1000 µM and the solubility kinetic [2] is reported as 127 µM (≈ 87.7 µg/mL).

With `CCCN1CC(=O)N(Cc2ccccc2)CC(=O)N[C@H](CC(C)C)C(=O)N[C@@H]([C@@H](C)CC)C(=O)N[C@@H](CC(C)C)C(=O)N[C@H](C)C1=O` [1EpDN 6Ala, EpD1,2N 6Ala] (cyclo(IL[dA][NPrGly][Nphe][dL])) the IC50 ([1]; read-out: IC50 (Table S1)) was > 1000 µM and the solubility kinetic [2] was 125 µM (≈ 82.1 µg/mL).

`CCCN1CC(=O)N(Cc2ccccc2)CC(=O)N[C@H](CC(C)C)C(=O)N[C@@H]([C@@H](C)CC)C(=O)N[C@@H](CC(C)C)C(=O)N[C@H](Cc2ccccc2)C1=O` [1EpDN, EpD1,2N] (cyclo(IL[dF][NPrGly][Nphe][dL])) gave an IC50 ([1]; read-out: IC50 (Table S1)) of 8.2 µM, an IC50 [1, 10] of ~8 µM and a solubility [2] of 14 to 17 µM (≈ 10.3 to 12.5 µg/mL). The IC50 ([3]; ref [22], read-out: IC50, ExoU secretion) was 8.2 µM and the IC50 ([4]; ref [22], read-out: IC50, YopE secretion) was 14.3 µM.

For `CCCN1CC(=O)N(Cc2ccccc2)CC(=O)N[C@@H](CC(C)C)C(=O)N[C@@H]([C@@H](C)CC)C(=O)N[C@@H](CC(C)C)C(=O)N[C@H](Cc2ccccc2)C1=O` [2EpDN, 2-EpD1,2N] (cyclo(IL[dF][NPrGly][Nphe]L)), the IC50 ([1]; read-out: IC50 (Table S1)) was 15.3 µM and the solubility kinetic [2] was 12 µM (≈ 8.8 µg/mL).

With `CCCN1CC(=O)N(Cc2ccccc2)CC(=O)N[C@H](CC(C)C)C(=O)N[C@@H]([C@@H](C)CC)C(=O)N[C@H](CC(C)C)C(=O)N[C@H](Cc2ccccc2)C1=O` [3EpDN, 3-EpD1,2N] (cyclo(I[dL][dF][NPrGly][Nphe][dL])) the IC50 ([1]; read-out: IC50 (Table S1)) was 16 µM and the solubility kinetic [2] was 18 µM (≈ 13.2 µg/mL).

In the case of `O=C(O)c1ccc(O)cc1` [4-Hydroxybenozic acid], the “lowest known inhibitory concentration (∼), hrpA” value [5] is listed as “∼2.5 mM hrpA^e”.

With `CC[C@H](C)[C@@H]1NC(=O)[C@H](CC(C)C)NC(=O)CN(Cc2ccccc2)C(=O)CN(C)C(=O)[C@@H](Cc2ccccc2)NC(=O)[C@@H](CC(C)C)NC1=O` [4EpDN 1Sar, 4-EpD1,2N 1Sar] (cyclo(I[dL][dF][Sar][Nphe]L)) the “T3SS inhibitory activity (ExoU secretion), in words” value [1] was “significantly reduced activity”, the IC50 ([1]; read-out: IC50 (Table S1)) was 19 µM and the solubility ([2]; DMEM (no antibiotics)) was 6 µM (≈ 4.23 µg/mL). The solubility ([2]; M9) was 4 µM (≈ 2.82 µg/mL).

`CCCN1CC(=O)N(Cc2ccccc2)CC(=O)N[C@@H](CC(C)C)C(=O)N[C@@H]([C@@H](C)CC)C(=O)N[C@H](CC(C)C)C(=O)N[C@@H](Cc2ccccc2)C1=O` [5EpDN, 5-EpD1,2N] (cyclo(F[NPrGly][Nphe]LI[dL])) gave an IC50 ([1]; read-out: IC50 (Table S1)) of 6.3 µM and a solubility kinetic [2] of 13 µM (≈ 9.53 µg/mL).

With `CCCN1CC(=O)N(Cc2ccccc2)CC(=O)N[C@H](CC(C)C)C(=O)N[C@@H]([C@@H](C)CC)C(=O)N[C@H](CC(C)C)C(=O)N[C@@H](Cc2ccccc2)C1=O` [6EpDN, 6-EpD1,2N] (cyclo(F[NPrGly][Nphe][dL]I[dL])) the IC50 ([1]; read-out: IC50 (Table S1)) was > 1000 µM and the solubility kinetic [2] was 1 µM (≈ 0.733 µg/mL).

For `CCCN1CC(=O)N(Cc2ccccc2)CC(=O)N[C@H](CC(C)C)C(=O)N[C@@H]([C@@H](C)CC)C(=O)N[C@@H](CC(C)C)C(=O)N[C@@H](Cc2ccccc2)C1=O` [8EpDN, 8-EpD1,2N] (cyclo(F[NPrGly][Nphe][dL]IL)), the IC50 ([1]; read-out: IC50 (Table S1)) was 41.5 µM and the solubility kinetic [2] was 1 µM (≈ 0.733 µg/mL).

With `CCCN1CC(=O)N(Cc2ccccc2)CC(=O)N[C@@H](CC(C)C)C(=O)N[C@H]([C@H](C)CC)C(=O)N[C@H](CC(C)C)C(=O)N[C@@H](Cc2ccccc2)C1=O` [9EpDN, 9-EpD1,2N] (cyclo(F[NPrGly][Nphe]L[dI][dL])) the IC50 ([1]; read-out: IC50 (Table S1)) was 12.8 µM, the IC50 [1, 10] was ~13 µM and the solubility kinetic [2] was 10 µM (≈ 7.33 µg/mL).

In the case of `O=c1cc(-c2ccccc2)oc2cc(O)c(O)c(O)c12` [Baicalein], the IC50 ([6]; ref [84], [85]) is listed as 500 µM and the IC50 ([7]; culture-based secretion assay, ref [84], [85], read-out: IC50, SopE2 secretion) is listed as 3.6 µM.

In the case of `Cc1ccc(S(=O)(=O)/C=C/C#N)cc1` [Bay 11-7082], the “growth of SufI-β-lactamase Tat reporter bacteria in penicillin G / Tat inhibition, in words” value [8] is reported as “strongly reduced growth of bacteria”.

In the case of `CCOc1cc(CN2N=C(C(=O)Nc3ccc(F)cc3F)SCC2=O)ccc1O` [Fluorothiazinon], the “lowest known inhibitory concentration (∼), Chlamydia” value ([6]; ref [93]–[96]) is given as “∼25^c μM”, the “lowest known inhibitory concentration (∼), ExoT, ExoY secretion” value ([3]; ref [93]–[96]) is given as “∼20 μg/ml ExoT^b ExoY^b” and the “lowest known inhibitory concentration (∼), SipA” value ([7]; footnote printed as a, ref [93]–[96]) is given as ~50 µM.

In the case of `CCCCc1ccc(C(=O)O)nc1` [Fusaric acid], the IC50 ([7]; culture-based secretion assay, ref [101], read-out: IC50, SipC secretion) is listed as 53.5 µM.

In the case of `O=C(N/N=C/c1cc(Br)cc(Br)c1O)c1ccc([N+](=O)[O-])cc1` [INP0007], the “lowest known inhibitory concentration (∼), YopE secretion” value [4] is listed as “∼50 YopE^b μM” and the “lowest known inhibitory concentration (∼), SipAC secretion” value ([7]; culture-based secretion assay, ref [64], [72]) is listed as “∼100 SipAC^b μM”.

In the case of `Cc1cc(Cl)cc(/C=N/NC(=O)c2ccc(O)cc2O)c1O` [INP0341], the “lowest known inhibitory concentration (∼), Chlamydia” value ([6]; ref [68], [70]) is listed as “∼20^c μM” and the “lowest known inhibitory concentration (∼), PA” value ([9]; cell-based infection assay, ref [68], [70]) is listed as “∼80^c μM”.

In the case of `O=C(N/N=C/c1c(O)ccc2ccccc12)c1ccc(Cl)cc1` [INP0400], the “lowest known inhibitory concentration (∼), Chlamydia” value ([6]; ref [70]) is listed as “∼20^c μM”.

For `O=C(N/N=C/c1ccc(O)c(O)c1O)c1ccccc1` [INP0401], the “lowest known inhibitory concentration (∼), hrp” value ([5]; ref [78]) is given as “∼50 hrp^e μM”.

In the case of `CC(C)=CCc1c(O)cc2oc(-c3ccc(O)cc3)c(O)c(=O)c2c1O` [Licoflavonol], the “lowest known inhibitory concentration (∼), SipC secretion” value ([7]; culture-based secretion assay, ref [86]) is given as “∼50 SipC^b μM”.

In the case of `CC(Oc1ccc(Cl)cc1Cl)C(=O)NCc1ccc2c(c1)OCO2` (centres unmarked) [MBX1641], the “lowest known inhibitory concentration (∼), Chlamydia” value ([6]; ref [65]) is given as “∼10^c μM” and the IC50 ([3]; ref [65], read-out: IC50, ExoS secretion) is given as 10 µM.

In the case of `CCC(Oc1ncc(Cl)cc1Cl)C(=O)NCc1ccc2sccc2c1` (centres unmarked) [MBX2401], the IC50 ([3]; ref [44], read-out: IC50, ExoS secretion) is listed as 1.2 µM.

For `O=C(N/N=C/c1cc(Br)cc(Br)c1O)c1cccnc1` [ME0052], the “lowest known inhibitory concentration (∼), Yops secretion” value [4] is listed as “∼20 Yops^b μM”.

In the case of `COc1c2cc(c(O)c1OC)CCCC[C@@H](O)CCc1ccc(O)c-2c1` [Myricanol], the IC50 ([7]; footnote printed as a, ref [107], read-out: IC50, SipC) is given as 41.3 µM.

For `O=C1C=CC(=O)N1c1ccccc1` [N-phenylmaleimide], the “growth of SufI-β-lactamase Tat reporter bacteria in penicillin G / Tat inhibition, in words” value [8] was “strongly reduced growth of bacteria”.

For `COc1ccc(C(C)=O)c(O)c1` [Paeonol], the “lowest known inhibitory concentration (∼), Sips secretion” value ([7]; culture-based secretion assay, ref [99]) is listed as “∼95 Sips^b μM”.

For `C[n+]1cc2c3c(ccc2c2ccc4cc5c(cc4c21)OCO5)OCO3` [Sanguinarine chloride], the “lowest known inhibitory concentration (∼), SipA” value ([7]; footnotes b and f: secretion assay and translocation assay, ref [88]) is given as “∼5 SipA^b^f μM”.

For `COc1cc(C=O)cc(OC)c1O` [Syringaldehyde], the “lowest known inhibitory concentration (∼), Sips secretion” value ([7]; culture-based secretion assay, ref [100]) is listed as “∼180 Sips^b μM”.

For `COc1cc(C(=O)O)ccc1O` [Vanillic acid], the “lowest known inhibitory concentration (∼), hrpA” value [5] is given as “∼2.5 mM hrpA^e”.

For `Cc1c(C)c2c(c(C)c1O)CC[C@@](C)(CCC[C@H](C)CCC[C@H](C)CCCC(C)C)O2` [α-tocopherol], the “lowest known inhibitory concentration (∼), PA, ExoY” value ([9]; footnotes c and f: cell-based infection assay, ExoY translocation assay, ref [105]) is given as “∼10^c ExoY^f μM”.

In the case of (-)-Hopeaphenol, the “lowest known inhibitory concentration (∼), Chlamydia” value ([6]; ref [97]) is listed as “∼25^c μM”, the “lowest known inhibitory concentration (∼), ExoS secretion” value ([3]; ref [97]) is listed as “∼50 ExoS^b μM” and the IC50 ([4]; ref [97], read-out: IC50, YopD secretion) is listed as 3.3 µM.
